Test results published in patent publication US20120251613A1, “METHOD FOR TREATING VITILIGO WITH A PROSTAGLANDIN ANALOGUE” (AGILA SPECIALITIES PVT. LTD., priority 2011, published 2012).
Entries after “also recorded” stand apart in the source; their conditions may differ.

Experiments:
[1] = test system: Patients with vitiligo; assay: Clinical efficacy of topical bimatoprost solution for treatment of vitiligo: degree of repigmentation; type: in vivo, human; details: for number of patients with Complete repigmentation (100%) / number of patients with Excellent repigmentation (75-99%) / number of patients with Marked repigmentation (50-74%) / number of patients with Moderate repigmentation (25-49%) / number of patients with Nil/mild repigmentation (less than 25%) / Repigmentation of body sites: number with Complete repigmentation (100%) / Repigmentation of body sites: number with Excellent repigmentation (75-99%) / Repigmentation of body sites: number with Marked repigmentation (50-74%) / Repigmentation of body sites: number with Moderate repigmentation (25-49%) / Repigmentation of body sites: number with Nil/mild repigmentation (less than 25%): 0.03% solution topically twice a day, 4 months
Description: 20 Patients with vitiligo were treated with topical bimatoprost solution for 4 months to elucidate its efficacy and tolerability in stable vitiligo. The solution contained bimatoprost in a concentration of 0.3 mg/mL (0.03%), benzalkonium chloride in a concentration of 0.05 mg/mL, and water. The solution has a pH of between 6.8 and 7.8, and contains sodium chloride, a dibasic sodium phosphate/citric acid buffer, and sodium hydroxide and/or hydrochloric acid to adjust the pH. The subjects had suffered from vitiligo for a period of between 8 and 80 months. The average period of depigmentation for the patients was 26.7 months. All the patients were examined by an independent observer. The percentage of repigmentation in form of color or size changes and folliculocentric/peripheral repigmentation were observed. […] Specifically, Nil/Mild repigmentation means that the skin has undergone less than 25% repigmentation, i.e., less than 25% of the skin surface has repigmented or, if repigmentation is observed, the skin has regained less than 25% of its natural color. Moderate repigmentation means that the skin has undergone 25-49% repigmentation, as measured by repigmented surface are and/or skin color. Marked repigmentation means that the skin has undergone 50-74% repigmentation, and excellent repigmentation means that the skin has undergone 75-99% repigmentation. Complete response means that repigmented skin lesions from vitiligo are indistinguishable from skin which has never been depigmented. The repigmentation effect of the composition starts rapidly within one to two months after starting the treatment. Topical treatment with bimatoprost is continued for a period of at least two months. If no response is observed to treatment with topical bimatoprost, treatment is stopped at the end of two months. If a mild or moderate response to treatment with topical bimatoprost is observed, therapy is continued for at least 4 months, while observing the patient for any further delayed improvement. In cases where complete or excellent response to topical bimatoprost is observed, treatment is stopped to determine whether relapse, i.e., whether loss of pigmentation is observed upon cessation of bimatoprost therapy. The frequency of application of the topical bimatoprost as an aqueous solution is twice a day.

[2] = cited from earlier work
[3] = test system: Patients with vitiligo; assay: Follow-up for 6 months after stopping bimatoprost treatment: positive response and relapse; type: in vivo, human; details: for Response positive (at least 25% repigmentation), number of patients / Response positive, ratio to total number of patients: 6 months after stopping therapy; for Relapse/loss of pigment, number of patients / Relapse/loss of pigment, percentage of patients with positive response: 6 months following cessation of therapy
From the text: The hypothetical mechanism of repigmentation would be of increased melanogenesis in dermal melanocytes together with increased transfer of melanin granules to the basal melanocytes.

[4] = test system: Patients with vitiligo; assay: Tolerability / side effects during therapy with topical bimatoprost; type: in vivo, human
Description: 20 Patients with vitiligo were treated with topical bimatoprost solution for 4 months to elucidate its efficacy and tolerability in stable vitiligo. The solution contained bimatoprost in a concentration of 0.3 mg/mL (0.03%), benzalkonium chloride in a concentration of 0.05 mg/mL, and water. The solution has a pH of between 6.8 and 7.8, and contains sodium chloride, a dibasic sodium phosphate/citric acid buffer, and sodium hydroxide and/or hydrochloric acid to adjust the pH.
All the patients were examined by an independent observer. The percentage of repigmentation in form of color or size changes and folliculocentric/peripheral repigmentation were observed.

[5] = site Mucosae (mucosal vitiligo or non-mucosal vitiligo progressed to mucosal surfaces)
[6] = vitiliginous lesions on the face or neck
[7] = vitiliginous lesions on the trunk or extremities

CCNC(=O)CCCC=CCC1C(O)CC(O)C1C=CC(O)CCc1ccccc1 (stereo not drawn) [bimatoprost, 7-[3,5-dihydroxy-2-(3-hydroxy-5-phenyl-pent-1-enyl)-cyclopentyl]-N-ethyl-hept-5-enamide]
complete clearance of vitiligo lesions (100% repigmentation), percentage of patients ([1]; 20 patients): 30%
marked to excellent repigmentation (50-99%), percentage of patients ([1]; 20 patients): 55%
patients in whom repigmentation was observed, percentage ([1]; 20 patients, all types of vitiligo): 70%
number of patients with Complete repigmentation (100%) ([1]; Focal vitiligo): 1
number of patients with Excellent repigmentation (75-99%) ([1]; Focal vitiligo): 4
number of patients with Marked repigmentation (50-74%) ([1]; Focal vitiligo): 1
number of patients with Moderate repigmentation (25-49%) ([1]; Focal vitiligo): 0
number of patients with Nil/mild repigmentation (less than 25%) ([1]; Focal vitiligo): 0
number of patients with Complete repigmentation (100%) ([1]; Mucosal vitiligo): 0
number of patients with Excellent repigmentation (75-99%) ([1]; Mucosal vitiligo): 0
number of patients with Marked repigmentation (50-74%) ([1]; Mucosal vitiligo): 0
number of patients with Moderate repigmentation (25-49%) ([1]; Mucosal vitiligo): 0
number of patients with Nil/mild repigmentation (less than 25%) ([1]; Mucosal vitiligo): 2
number of patients with Complete repigmentation (100%) ([1]; Segmental vitiligo): 1
number of patients with Excellent repigmentation (75-99%) ([1]; Segmental vitiligo): 2
number of patients with Marked repigmentation (50-74%) ([1]; Segmental vitiligo): 1
number of patients with Moderate repigmentation (25-49%) ([1]; Segmental vitiligo): 0
number of patients with Nil/mild repigmentation (less than 25%) ([1]; Segmental vitiligo): 0
mean onset of pigmentation after initiation of therapy ([1]; all patients): 2 months
patients treated with at least 50% repigmentation ([1]; all patients treated): 75%
response of lesions, in words ([1]; lesions on mucosal surfaces or on the extremities): respond poorly
vitiliginous lesions showing at least 50% repigmentation ([1]; lesions on the face and neck): all vitiliginous lesions
vitiliginous lesions showing at least 50% repigmentation ([1]; lesions on the trunk): 66%
repigmentation commencing after initiation of therapy ([1]; new patients (vitiligo for 6 months or less)): four to six
patients in whom repigmentation was observed, number ([1]; out of 20 patients, all types of vitiligo): 14
repigmentation, in words ([1]; remaining patients with generalized vitiligo): little or no repigmentation
patients exhibiting at least 50% repigmentation (at least marked) ([1]; segmental or focal vitiligo): all patients
Repigmentation of body sites: number with Complete repigmentation (100%) ([1]; site Extremities): 0
Repigmentation of body sites: number with Excellent repigmentation (75-99%) ([1]; site Extremities): 0
Repigmentation of body sites: number with Marked repigmentation (50-74%) ([1]; site Extremities): 0
Repigmentation of body sites: number with Moderate repigmentation (25-49%) ([1]; site Extremities): 2
Repigmentation of body sites: number with Nil/mild repigmentation (less than 25%) ([1]; site Extremities): 2
Repigmentation of body sites: number with Complete repigmentation (100%) ([1]; site Head & neck): 4
Repigmentation of body sites: number with Excellent repigmentation (75-99%) ([1]; site Head & neck): 4
Repigmentation of body sites: number with Marked repigmentation (50-74%) ([1]; site Head & neck): 2
Repigmentation of body sites: number with Moderate repigmentation (25-49%) ([1]; site Head & neck): 0
Repigmentation of body sites: number with Nil/mild repigmentation (less than 25%) ([1]; site Head & neck): 0
Repigmentation of body sites: number with Complete repigmentation (100%) [1, 5]: 0
Repigmentation of body sites: number with Excellent repigmentation (75-99%) [1, 5]: 0
Repigmentation of body sites: number with Marked repigmentation (50-74%) [1, 5]: 0
Repigmentation of body sites: number with Moderate repigmentation (25-49%) [1, 5]: 2
Repigmentation of body sites: number with Nil/mild repigmentation (less than 25%) [1, 5]: 2
Repigmentation of body sites: number with Complete repigmentation (100%) ([1]; site Trunk): 0
Repigmentation of body sites: number with Excellent repigmentation (75-99%) ([1]; site Trunk): 2
Repigmentation of body sites: number with Marked repigmentation (50-74%) ([1]; site Trunk): 2
Repigmentation of body sites: number with Moderate repigmentation (25-49%) ([1]; site Trunk): 0
Repigmentation of body sites: number with Nil/mild repigmentation (less than 25%) ([1]; site Trunk): 2
start of the repigmentation effect after starting the treatment ([1]; topical, twice a day): one to two
number of patients with Complete repigmentation (100%) ([1]; vitiligo Vulgaris): 2
number of patients with Excellent repigmentation (75-99%) ([1]; vitiligo Vulgaris): 2
number of patients with Marked repigmentation (50-74%) ([1]; vitiligo Vulgaris): 1
number of patients with Moderate repigmentation (25-49%) ([1]; vitiligo Vulgaris): 0
number of patients with Nil/mild repigmentation (less than 25%) ([1]; vitiligo Vulgaris): 3
repigmentation, in words ([1]; vitiligo restricted to the mucosal surfaces or to the extremities): little or no repigmentation
patients exhibiting at least 50% repigmentation (at least marked) ([1]; vitiligo vulgaris (generalized vitiligo)): More than 60%
solubility in water [2]: only slightly soluble; also recorded: very low
Response positive (at least 25% repigmentation), number of patients ([3]; Extremities, 4 patients): 2
Response positive, ratio to total number of patients ([3]; Extremities, 4 patients): 50%
Relapse/loss of pigment, number of patients ([3]; Extremities): 1
Relapse/loss of pigment, percentage of patients with positive response ([3]; Extremities): 50%
Response positive (at least 25% repigmentation), number of patients ([3]; Face and neck, 10 patients): 10
Response positive, ratio to total number of patients ([3]; Face and neck, 10 patients): 100%
Relapse/loss of pigment, number of patients ([3]; Face and neck): 1
Relapse/loss of pigment, percentage of patients with positive response ([3]; Face and neck): 10%
Response positive (at least 25% repigmentation), number of patients ([3]; Focal, 6 patients): 6
Response positive, ratio to total number of patients ([3]; Focal, 6 patients): 100%
Relapse/loss of pigment, number of patients ([3]; Focal): 0
Response positive (at least 25% repigmentation), number of patients ([3]; Mucosal, 2 patients): 0
Relapse/loss of pigment, number of patients ([3]; Mucosal): 0
Response positive (at least 25% repigmentation), number of patients ([3]; Segmental, 4 patients): 4
Response positive, ratio to total number of patients ([3]; Segmental, 4 patients): 100%
Relapse/loss of pigment, number of patients ([3]; Segmental): 0
Response positive (at least 25% repigmentation), number of patients ([3]; Trunk, 6 patients): 4
Response positive, ratio to total number of patients ([3]; Trunk, 6 patients): 66%
Relapse/loss of pigment, number of patients ([3]; Trunk): 2
Relapse/loss of pigment, percentage of patients with positive response ([3]; Trunk): 50%
Response positive (at least 25% repigmentation), number of patients ([3]; Vulgaris, 8 patients): 4
Response positive, ratio to total number of patients ([3]; Vulgaris, 8 patients): 50%
Relapse/loss of pigment, number of patients ([3]; Vulgaris): 1
Relapse/loss of pigment, percentage of patients with positive response ([3]; Vulgaris): 25%
patients exhibiting a positive response 6 months after stopping therapy ([3]; focal or segmental vitiligo): 100%
patients with positive response showing measurable depigmentation after 6 months ([3]; focal or segmental vitiligo): none
patients exhibiting a positive response 6 months after stopping therapy ([3]; generalized vitiligo (vitiligo vulgaris), eight patients): 50%
patients exhibiting a positive response 6 months after stopping therapy, number ([3]; generalized vitiligo (vitiligo vulgaris), of eight patients): four
patients with positive response showing measurable depigmentation after 6 months, number ([3]; generalized vitiligo, of four responders): one
patients exhibiting a positive response 6 months after stopping therapy [3, 6]: 100%
patients with positive response showing measurable depigmentation after 6 months [3, 6]: none
patients exhibiting a positive response 6 months after stopping therapy [3, 7]: 60%
patients with positive response showing measurable depigmentation after 6 months [3, 7]: 60%
severe adverse reactions during the trial ([4]; 20 patients, 0.03% solution topically, 4 months): No severe adverse reactions
most commonly observed side effect ([4]; after application, especially on the lips): transient burning sensation
incidence of side-effects during therapy ([4]; topical, 20 patients): 20%
severity of side effects ([4]; topical, 20 patients): mild
